Like-named read-outs stand apart in the source and are kept apart here. Numbered stars: 1 amine (or outer) side, 2 acyl side, 3 side chain; on linkers, the order of the positions; unused ones are H or OH. Bridge positions count the residues as written; N and C are the ends. Square brackets hold non-standard residues; d marks the D form. Peptide text beside a SMILES is read from it. * marks the point of attachment. X2 = CN1C[C@H](CSCC(=O)*)C[C@@H]2c3cccc4[nH]cc(c34)C[C@H]21; Pipz(1-CH2CO,4-CH2CH2NH) = O=C(CN1CCN(CCN[*:1])CC1)[*:2]; Abu = CC[C@H](N)C(=O)O
Tests used:
hsst1 = target: T1, hsst1 (Homo sapiens, UniProt P30872); experiment: Somatostatin receptor radioligand binding assay, hsst1
T1 construct: expressed in transfected cells
T1 sequence (P30872 whole entry): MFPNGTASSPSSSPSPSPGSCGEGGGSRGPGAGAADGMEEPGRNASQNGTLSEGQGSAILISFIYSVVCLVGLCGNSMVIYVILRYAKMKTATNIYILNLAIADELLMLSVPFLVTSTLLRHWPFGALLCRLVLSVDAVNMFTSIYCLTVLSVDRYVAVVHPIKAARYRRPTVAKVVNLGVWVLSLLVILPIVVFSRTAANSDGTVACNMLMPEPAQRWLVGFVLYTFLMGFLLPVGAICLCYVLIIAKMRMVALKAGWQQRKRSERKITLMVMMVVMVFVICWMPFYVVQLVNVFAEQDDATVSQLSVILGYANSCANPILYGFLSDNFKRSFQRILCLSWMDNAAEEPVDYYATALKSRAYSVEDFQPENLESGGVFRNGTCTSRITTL
Description: Specificity and selectivity of the somatostatin analogues used to synthesize the somatostatin-dopamine chimers were determined by a radioligand binding assay on CHO-K1 cells stably transfected with each of the SSTR subtypes, as follows. Somatostatin analogs are also described in U.S. Patent Application Publication No. 02210006790. The complete coding sequences of genomic fragments of the SSTR 1 (e.g., Genbank accession No. M81829), SSTR 2 (e.g., Genbank accession No. M81830), SSTR 3 (e.g., Genbank accession No. L07062), and SSTR 4 (e.g., Genbank accession No. AL049651) genes and a cDNA clone for SSTR 5 (e.g., Genbank accession No. D16827) was subcloned into the mammalian expression vector pCMV (Life Technologies, Milano, Italy). Other SSTR sequences are known to the skilled artisan. Clonal cell lines stably expressing SSTR's 1-5 were obtained by transfection into CHO-K1 cells (ATCC, Manassas, Va., USA) using the calcium phosphate co-precipitation method (Davis L, et al., 1994 In: Basic methods in Molecular Biology, 2nd edition, Appleton & Lange, Norwalk, Conn., USA: 611-646). The plasmid pRSV-neo (ATCC) was included as a selectable marker. Clonal cell lines were selected in RPMI 1640 media containing 0.5 mg/mL of G418 (Life Technologies, Milano, Italy), ring cloned, and expanded into culture.
Membranes for in vitro receptor binding assays were obtained by homogenizing the CHO-K1 cells expressing the SSTR's subtypes in ice-cold 50 mM Tris-HCl and centrifuging twice at 39,000 g (10 min), with an intermediate resuspension in fresh buffer. The final pellets were resuspended in 10 mM Tris-HCl for assay.
For the SSTR 1, 3, 4, and 5 assays, aliquots of the membrane preparations were incubated 90 minutes at 25° C. with 0.05 nM [^125I-Tyr11]SS-14 in 50 mM HEPES (pH 7.4) containing 10 mg/mL BSA, 5 mM MgCl2, 200 KIU/mL Trasylol, 0.02 mg/mL bacitracin, and 0.02 mg/mL phenylmethylsuphonyl fluoride. The final assay volume was 0.3 mL.
For the SSTR 2 assay, 0.05 nM [^125I]MK-678 was employed as the radioligand and the incubation time was 90 minutes at 25° C. The incubations were terminated by rapid filtration through GF/C glass microfiber filters (Whatman Co.) (pre-soaked in 0.3% polyethylenimine) using a BRANDEL filtration manifold. Each tube and filter was washed three times with 5 mL aliquots of ice-cold buffer. Specific binding was defined as the total radioligand bound minus that bound in the presence of 1000 nM SS-14 for SSTR 1, 3, 4, and 5, or 1000 nM MK-678 for SSTR2.
(§1) Using the discussed assays, the inhibition constants (Ki) for the five human somatostatin receptors (hSSTR1-hSSTR5) and the dopamine-2 receptor (hUTII and hDA2) were measured for the exemplified somatostatin-dopamine conjugates, as follows: […]

hsst2 = target: T2, hsst2 (Homo sapiens, UniProt P30874); experiment: Somatostatin receptor radioligand binding assay, hsst2; settings: CHO-K1 membranes, [125I]MK-678; read-out: hsst2 Ki
T2 construct: expressed in transfected cells
T2 sequence (P30874 whole entry): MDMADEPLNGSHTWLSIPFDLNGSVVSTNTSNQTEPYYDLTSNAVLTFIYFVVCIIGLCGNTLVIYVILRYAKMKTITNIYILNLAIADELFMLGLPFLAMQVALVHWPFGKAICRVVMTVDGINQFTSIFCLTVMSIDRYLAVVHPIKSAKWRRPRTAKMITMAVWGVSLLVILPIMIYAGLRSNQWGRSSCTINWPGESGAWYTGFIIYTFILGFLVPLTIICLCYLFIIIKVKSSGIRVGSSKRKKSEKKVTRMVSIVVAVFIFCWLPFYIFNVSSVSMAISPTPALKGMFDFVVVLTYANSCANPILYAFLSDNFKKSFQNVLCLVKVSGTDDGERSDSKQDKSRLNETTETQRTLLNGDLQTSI
Summary of the method: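 Membranes from CHO-K1 cells stably expressing human SSTR2, in 10 mM Tris-HCl, incubated 90 min at 25 °C with 0.05 nM [125I]MK-678. Bound ligand collected by filtration on PEI-soaked GF/C filters; nonspecific binding defined with 1000 nM MK-678.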

hsst3 = target: T3, hsst3 (Homo sapiens, UniProt P32745); experiment: Somatostatin receptor radioligand binding assay, hsst3
T3 construct: expressed in transfected cells
T3 sequence (P32745 whole entry): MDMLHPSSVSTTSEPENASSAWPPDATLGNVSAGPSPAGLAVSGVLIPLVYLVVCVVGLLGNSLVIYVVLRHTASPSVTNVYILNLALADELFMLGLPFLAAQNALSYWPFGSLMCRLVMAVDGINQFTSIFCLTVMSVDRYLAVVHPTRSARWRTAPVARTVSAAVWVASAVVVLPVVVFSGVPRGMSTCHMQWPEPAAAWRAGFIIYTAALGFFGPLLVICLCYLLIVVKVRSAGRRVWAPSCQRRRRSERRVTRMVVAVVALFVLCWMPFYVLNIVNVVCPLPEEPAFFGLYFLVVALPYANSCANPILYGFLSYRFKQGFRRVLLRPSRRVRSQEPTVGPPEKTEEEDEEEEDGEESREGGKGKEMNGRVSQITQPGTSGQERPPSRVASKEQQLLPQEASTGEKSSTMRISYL
Summary of the method: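 Membranes from CHO-K1 cells stably transfected with each human SSTR subtype, incubated 90 min at 25 °C with 0.05 nM [125I-Tyr11]SS-14 in 50 mM HEPES pH 7.4 with BSA, MgCl2 and protease inhibitors; filtration read-out. Nonspecific binding with 1000 nM SS-14; Ki values reported.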

hsst5 = target: T4, hsst5 (Homo sapiens, UniProt P35346); experiment: Somatostatin receptor radioligand binding assay, hsst5; settings: CHO-K1 membranes, [125I-Tyr11]SS-14
T4 construct: expressed in transfected cells
T4 sequence (P35346 whole entry): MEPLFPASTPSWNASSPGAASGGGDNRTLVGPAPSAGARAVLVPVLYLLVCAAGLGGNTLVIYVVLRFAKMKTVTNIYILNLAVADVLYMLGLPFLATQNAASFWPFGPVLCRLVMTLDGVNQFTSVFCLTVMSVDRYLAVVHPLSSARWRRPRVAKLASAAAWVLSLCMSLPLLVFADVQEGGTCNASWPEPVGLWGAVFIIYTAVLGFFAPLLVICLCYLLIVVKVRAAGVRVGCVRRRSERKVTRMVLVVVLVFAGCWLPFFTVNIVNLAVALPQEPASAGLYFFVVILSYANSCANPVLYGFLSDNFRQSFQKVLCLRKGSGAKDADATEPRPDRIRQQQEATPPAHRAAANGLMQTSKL
Summary of the method: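 Membranes from CHO-K1 cells stably expressing hsst5, incubated 90 min at 25 °C with 0.05 nM [125I-Tyr11]SS-14 in 50 mM HEPES pH 7.4 with BSA, MgCl2 and protease inhibitors. Bound ligand collected by filtration. Non-specific binding defined with 1000 nM SS-14.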

hUTII = target: T5, hUTII (Homo sapiens, UniProt Q9UKP6); experiment: hUTII inhibition constant; format: binding; settings: read-out: hUTII Ki
T5 sequence (Q9UKP6 1-389): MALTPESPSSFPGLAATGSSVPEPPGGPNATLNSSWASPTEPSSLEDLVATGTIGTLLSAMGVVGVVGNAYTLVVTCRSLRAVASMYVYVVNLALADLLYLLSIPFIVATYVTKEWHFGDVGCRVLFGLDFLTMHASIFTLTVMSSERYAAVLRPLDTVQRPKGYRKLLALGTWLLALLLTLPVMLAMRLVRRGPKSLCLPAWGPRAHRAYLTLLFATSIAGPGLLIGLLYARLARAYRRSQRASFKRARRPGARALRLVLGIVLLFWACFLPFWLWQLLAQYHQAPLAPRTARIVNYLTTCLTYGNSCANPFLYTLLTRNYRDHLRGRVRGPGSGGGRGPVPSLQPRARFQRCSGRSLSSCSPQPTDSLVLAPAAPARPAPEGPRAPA
Description: as §1

hDA2 = experiment: Dopamine-2 receptor radioligand binding assay; parameters: species or system human; settings: [3H]spiperone
[1] = CHO-K1 membranes, [125I-Tyr11]SS-14, read-out: hsst1 Ki
[2] = CHO-K1 membranes, [125I-Tyr11]SS-14, read-out: hsst3 Ki

## CCCN1C[C@H](CSCC(=O)NCCN2CCN(CC(=O)N[C@H](Cc3ccccc3)C(=O)N[C@H]3CSSC[C@@H](C(=O)N[C@H](C(N)=O)[C@@H](C)O)NC(=O)[C@H](CC)NC(=O)[C@H](CCCCN)NC(=O)[C@@H](Cc4c[nH]c5ccccc45)NC(=O)[C@H](Cc4ccc(O)cc4)NC3=O)CC2)C[C@@H]2c3cccc4[nH]cc(c34)C[C@H]21 [Example 24]
hsst1; [1]
  Ki: 1000 nM
hsst2
  Ki: 0.37 nM
hsst3; [2]
  Ki: 154 nM
hsst5; read-out: hsst5 Ki
  Ki: 24.2 nM
hUTII
  Ki: 1510 nM
hDA2
  Ki: 143 nM

## CC[C@@H]1NC(=O)[C@H](CCCCN)NC(=O)[C@@H](Cc2c[nH]c3ccccc23)NC(=O)[C@H](Cc2ccc(O)cc2)NC(=O)[C@@H](NC(=O)[C@@H](Cc2ccc(O)cc2)NC(=O)[C@@H](Cc2ccc(O)cc2)NC(=O)[C@H](CCCCN)NC(=O)CN2CCN(CCNC(=O)CN3CCN(CCNC(=O)CSC[C@@H]4C[C@@H]5c6cccc7[nH]cc(c67)C[C@H]5N(C)C4)CC3)CC2)CSSC[C@@H](C(=O)N[C@H](C(N)=O)[C@@H](C)O)NC1=O [Example 28] (X2-[Pipz(1-CH2CO,4-CH2CH2NH)][Pipz(1-CH2CO,4-CH2CH2NH)]K[dY][dY]CY[dW]K[Abu]CT-NH2; disulfide 6-11)
hsst1
  Ki: 661 nM
hsst2
  Ki: 0.11 nM
hsst3
  Ki: 156 nM
hsst5; hsst5 Ki
  Ki: 5.13 nM
hUTII
  Ki: 564 nM
hDA2
  Ki: 506 nM

## CC[C@@H]1NC(=O)[C@H](CCCCN)NC(=O)[C@@H](Cc2c[nH]c3ccccc23)NC(=O)[C@H](Cc2ccc(O)cc2)NC(=O)[C@@H](NC(=O)[C@@H](Cc2ccccc2)NC(=O)CSC[C@@H]2C[C@@H]3c4cccc5[nH]cc(c45)C[C@H]3N(C)C2)CSSC[C@@H](C(=O)N[C@H](C(N)=O)[C@@H](C)O)NC1=O [Example 30]
hsst1; [1]
  Ki: 689 nM
hsst2
  Ki: 0.15 nM
hsst3; [2]
  Ki: 49.5 nM
hsst5; read-out: hsst5 Ki
  Ki: 15.7 nM
hUTII
  Ki: 619 nM
hDA2
  Ki: 23.7 nM

## CCCN1C[C@H](CSCC(=O)N[C@H](Cc2ccccc2)C(=O)N[C@H]2CSSC[C@@H](C(=O)N[C@H](C(N)=O)[C@@H](C)O)NC(=O)[C@H](CC)NC(=O)[C@H](CCCCN)NC(=O)[C@@H](Cc3c[nH]c4ccccc34)NC(=O)[C@H](Cc3ccc(O)cc3)NC2=O)C[C@@H]2c3cccc4[nH]cc(c34)C[C@H]21 [Example 31]
hsst1; [1]
  Ki: 691 nM
hsst2
  Ki: 0.1 nM
hsst3; [2]
  Ki: 84.6 nM
hsst5; read-out: hsst5 Ki
  Ki: 22.6 nM
hUTII
  Ki: 498 nM
hDA2
  Ki: 25.5 nM

## CC[C@@H]1NC(=O)[C@H](CCCCN)NC(=O)[C@@H](Cc2c[nH]c3ccccc23)NC(=O)[C@H](Cc2ccc(O)cc2)NC(=O)[C@@H](NC(=O)[C@@H](Cc2ccccc2)NC(=O)COCCOCCNC(=O)CSC[C@@H]2C[C@@H]3c4cccc5[nH]cc(c45)C[C@H]3N(C)C2)CSSC[C@@H](C(=O)N[C@H](C(N)=O)[C@@H](C)O)NC1=O [Example 40]
hsst1; [1]
  Ki: 1000 nM
hsst2
  Ki: 0.32 nM
hsst3; [2]
  Ki: 70.3 nM
hsst5; read-out: hsst5 Ki
  Ki: 17 nM
hUTII
  Ki: 223 nM
hDA2
  Ki: 255 nM

## CC[C@@H]1NC(=O)[C@H](CCCCN)NC(=O)[C@@H](Cc2c[nH]c3ccccc23)NC(=O)[C@H](Cc2ccc(O)cc2)NC(=O)[C@@H](NC(=O)[C@@H](Cc2ccccc2)NC(=O)COCCOCCNC(=O)COCCOCCNC(=O)CSC[C@@H]2C[C@@H]3c4cccc5[nH]cc(c45)C[C@H]3N(C)C2)CSSC[C@@H](C(=O)N[C@H](C(N)=O)[C@@H](C)O)NC1=O [Example 42]
hsst1; [1]
  Ki: 1000 nM
hsst2
  Ki: 0.34 nM
hsst3; [2]
  Ki: 120 nM
hsst5; read-out: hsst5 Ki
  Ki: 20.6 nM
hUTII
  Ki: 510 nM
hDA2
  Ki: 278 nM
